Data: BindingDB's records for doi:10.1016/j.bmc.2018.03.016 (University of Lille, 2018)

Assay: Modulation of human wild-type APP695 expressed in SH-SY5Y cells assessed as inhibition of amyloid beta (1 to 42 residues) production measured after 24 hrs by ELISA

Row | Structure (SMILES) | IC50
1 | O=C(CN1CCCCC1)Nc1cc(CN2CCOCC2)cc(Nc2ccnc3cc(Cl)ccc23)c1 | 7.1 µM
2 | CCN(CC)Cc1cc(Nc2ccnc3cc(Cl)ccc23)ccc1O [Amodiaquin] | 5.4 µM
3 | Oc1c(CN2CCCC2)cc(Nc2ccnc3cc(Cl)ccc23)cc1CN1CCCC1 | 11.2 µM
4 | CCN(CC)Cc1cc(NCCN2CCCCC2)cc(Nc2ccnc3cc(Cl)ccc23)c1 | 13.8 µM
5 | CCN(CC)Cc1cccc(Nc2ccnc3cc(Cl)ccc23)c1 | 10.4 µM
6 | Clc1ccc2c(Nc3cc(CN4CCOCC4)cc(NCCN4CCCCC4)c3)ccnc2c1 | 4.9 µM
7 | CN(C)CCN(C)Cc1cc(NC(=O)CN2CCCCC2)cc(Nc2ccnc3cc(Cl)ccc23)c1 | 2.9 µM
8 | CN1CCN(c2cc(Nc3ccnc4cc(Cl)ccc34)cc(N3CCN(C)CC3)c2)CC1 | 1.9 µM
9 | CCN(CC)CCC[C@@H](C)Nc1ccnc2cc(Cl)ccc12 [Aralen] | 12.8 µM
10 | CCN(CC)Cc1cc(NC(=O)CN2CCCCC2)cc(Nc2ccnc3cc(Cl)ccc23)c1 | 2.8 µM

Second part, the compound after the results:

Row | IC50 | Structure (SMILES)
11 | 6 µM | c1ccc(Nc2cc(CNCCN3CCCCC3)cc(CNCCN3CCCCC3)c2)c(CN2CCCCC2)c1
12 | 9.4 µM | O=C(NCCN1CCCCC1)c1cc(C(=O)NCCN2CCCCC2)cc(-c2ccccc2CN2CCCCC2)c1
13 | 4.7 µM | O=C(NCCN1CCCCC1)c1cc(Nc2ccccc2CN2CCCCC2)cc(C(=O)NCCN2CCCCC2)c1
14 | 7.9 µM | c1ccc(Nc2cc(CNCCN3CCCCC3)cc(CNCCN3CCCCC3)c2)c(CN2CCOCC2)c1
15 | > 10 µM | CN(C)Cc1ccccc1Nc1cc(C(=O)NCCN2CCCCC2)cc(C(=O)NCCN2CCCCC2)c1
